The record followed here is article PMC7196807 (Proceedings of the National Academy of Sciences of the …, 2020).

This assay has as its target hIP6K1 (IP6K1) (Homo sapiens, UniProt Q92551). As to the kind of experiment: kinase product identified by Dipp1 cocrystal structure. The class given is biochemical. The settings on record: kinase site.

hIP6K1 (IP6K1), sequence (Q92551 whole entry): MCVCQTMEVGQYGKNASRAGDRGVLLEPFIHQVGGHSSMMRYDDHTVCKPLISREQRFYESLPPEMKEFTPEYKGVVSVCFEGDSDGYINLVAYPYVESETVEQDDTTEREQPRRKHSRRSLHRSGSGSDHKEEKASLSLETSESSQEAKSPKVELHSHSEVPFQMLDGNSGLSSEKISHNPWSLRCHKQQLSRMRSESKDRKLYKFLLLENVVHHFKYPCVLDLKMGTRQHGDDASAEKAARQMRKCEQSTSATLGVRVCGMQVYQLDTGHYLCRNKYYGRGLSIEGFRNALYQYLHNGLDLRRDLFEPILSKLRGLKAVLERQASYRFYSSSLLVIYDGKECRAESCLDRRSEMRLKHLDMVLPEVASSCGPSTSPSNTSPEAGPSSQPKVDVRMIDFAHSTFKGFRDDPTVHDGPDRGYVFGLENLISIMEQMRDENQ

`O=P(O)(O)O[C@H]1[C@@H](OP(=O)(O)O)[C@H](OP(=O)(O)O)[C@@H](OP(=O)(O)OP(=O)(O)O)[C@H](OP(=O)(O)O)[C@H]1OP(=O)(O)O` [5-IP7]: the “kinase product identified by Dipp1 cocrystal structure” value is “IP6K1 IP7 product/DIPP complex confirms the stereomer as unambiguously 5-IP7”.
